Reference: patent US20220326218A1, “COMPOSITION AND METHOD FOR INHIBITING BORC COMPLEX TO TREAT CANCERS WITH NF1 DEFICIENCY AND DYSREGULATED RAS SIGNALING” (THE TRUSTEES OF DARTMOUTH COLLEGE, priority 2019, published 2022)

Experiments:
Assay type in all cases: cell-based, human
sequestosome-1 (p62) = assay: Immunofluorescence staining for p62; conditions: U87-MG, 24 h; 2 μM Y102, 50 μM HCQ; HCQ and Y102 compared with each other
Protocol: (§1) U87-MG cells were plated at a concentration of 50,000 cells/well onto precoated poly-D-lysine (PDL) coverslips (Neuvitro) in 24-well plates (Falcon) and allowed to adhere overnight. Medium was removed and replaced with treatment-laced media normalized to DMSO, and cells were treated for the indicated timepoints. At the time of collection, cells were washed with PBS and fixed with 4% paraformaldehyde without methanol (EMS) or 100% methanol (Fischer). Coverslips were washed with Tween20-containing PBS (PBST; Fischer). Following permeabilization with 0.5% Triton X-100 in PBS (Fischer), coverslips were blocked for 1 h at room temperature in IF Buffer (0.05% azide, 0.2% Triton X-100, 2% Normal Goat Serum or, for 8-OHG, Normal Donkey Serum). The following primary antibodies were used for 1 hour at room temperature unless specified: AlexaFluor 488 pre-conjugated anti-γ-H2AX (N1-431) mouse monoclonal (30 minutes; BD Biosciences), anti-cleaved caspase 3 (Asp175) rabbit polyclonal (Cell Signaling), anti-SQSTM1/p62 (D-3) mouse monoclonal (Santa Cruz), anti-8-Hydroxyguanosine goat polyclonal (1:200; Millipore), anti-LAMP1 (D4O1S) mouse monoclonal (O/N at 4° C.; Cell Signaling), anti-BNIP3L/Nix (D4R4B) rabbit monoclonal (O/N at 4° C.; Cell Signaling), anti-FLAG (M2) mouse monoclonal (2 hours at 37° C.; Sigma-Aldrich). […]

[1] = test system: 8-hydroxyguanosine (8-OHG); assay: Immunofluorescence staining for oxidative stress marker 8-OHG; conditions: U87-MG, 2 μM, 24 h
Protocol: as §1

BNIP3L/Nix [2] = assay: Immunofluorescence staining for mitophagy receptor BNIP3L/Nix; conditions: U87-MG, 24 h; 2 μM Y102, 100 μM CoCl2; CoCl2 and Y102 compared with each other
Protocol: as §1

BNIP3L/Nix [3] = assay: Western immunoblotting of BNIP3L/Nix; conditions: U87-MG, 2 μM, 24 h, 20 μM QVD pre-treatment
Protocol: U87-MG cells were plated at 500,000 cells/well in 6-well plates and allowed to adhere overnight (Falcon). Medium was removed and replaced with fresh medium containing drugs or compounds for the indicated timepoints. Cells were collected after treatment by washing with PBS, harvested with trypsin plus agitation to detach cells, pelleted in a centrifuge and resuspended in PBS to wash. Cells were transferred to 1.5 mL microcentrifuge tubes, pelleted, and resuspended in RIPA lysis buffer (50 mM Tris pH 8.0, 150 mM NaCl, 1% nonidet P40, 0.5% sodium deoxycholate, and 0.05% SDS) containing 1 mM NaVO4, 1 mM NaF, 1 mM phenylmethylsulfonyl fluoride, 0.1 μg/mL antipain, 1 μM aprotinin, 100 μM benzamidine HCl, 0.1 μg/mL leupeptin, 0.1 μg/mL pepstatin, and 0.1 μg/mL soybean trypsin inhibitor. Protein was quantified using a BCA assay kit (Pierce). 50 μg of protein was prepared in 1× Laemmli sample buffer (50 mM Tris pH 6.8, 0.02% w/v bromophenol blue, 2% w/v SDS, 10% v/v glycerol, 1% v/v beta-mercaptoethanol, 12.5 mM EDTA) and separated by SDS-PAGE on a 4-15% polyacrylamide gradient gel (Bio-Rad). […]

U87-MG cells = assay: Flow cytometry cell cycle distribution (DNA content); conditions: 2 μM, 24 h
Protocol: U87-MG cells were plated at 500,000 cells/well in a 6-well plate and allowed to adhere overnight. The medium was replaced with cell culture media containing DMSO, 2 μM Y102, 100 nM Doxorubicin, or 100 μM CoCl2 for 24 hours. At the end of the incubation, cells were rinsed twice with PBS, trypsinized, and rinsed again with PBS prior to fixation with BD cytofix/cytoperm for 30 minutes on ice. After washing with BD perm/wash twice, cells were stained with DAPI at a final concentration 0.33 μg/mL in PBS for 30 minutes on ice. Cells were washed twice more with BD perm/wash, and resuspended in PBS for analysis. The cells were transferred to flow cytometry tubes (14-961-10, Fisherbrand) and analyzed using a MacsQuant VYB 8-color flow cytometer. DNA content was detected using the V1 channel. This experiment was repeated twice, and the percentage of cells in each cell cycle stage is shown. 50,000 events per sample were collected and cellular debris was gated out of the dataset.

## Cn1cnnc1S/C=C/C(=O)c1ccc(F)cc1 [Y102]
sequestosome-1 (p62)
  p62 expression compared to DMSO (immunofluorescence): increased
[1]
  8-OHG compared to DMSO: increase
  localization of 8-OHG oxidative stress-induced damage: both nuclear and mitochondrial DNA
BNIP3L/Nix [2]
  expression/localization of BNIP3L/Nix on the mitochondria compared to DMSO control: increase
BNIP3L/Nix [3]
  BNIP3L/Nix protein levels versus DMSO: little difference
U87-MG cells
  cell cycle arrest (cell cycle distribution by DNA content): no indication
